molecular target: T1, AXL kinase (Homo sapiens, UniProt P30530); assay: Inhibitory activity of compound against AXL kinase (HTRF KinEASE); type: biochemical; conditions: AXL enzyme (Carna, 08-107), ATP 15 μM; "<" means below detection limit of the test
T1 construct: purchased Carna 08-107
T1 sequence (P30530 473-894 limits assumed): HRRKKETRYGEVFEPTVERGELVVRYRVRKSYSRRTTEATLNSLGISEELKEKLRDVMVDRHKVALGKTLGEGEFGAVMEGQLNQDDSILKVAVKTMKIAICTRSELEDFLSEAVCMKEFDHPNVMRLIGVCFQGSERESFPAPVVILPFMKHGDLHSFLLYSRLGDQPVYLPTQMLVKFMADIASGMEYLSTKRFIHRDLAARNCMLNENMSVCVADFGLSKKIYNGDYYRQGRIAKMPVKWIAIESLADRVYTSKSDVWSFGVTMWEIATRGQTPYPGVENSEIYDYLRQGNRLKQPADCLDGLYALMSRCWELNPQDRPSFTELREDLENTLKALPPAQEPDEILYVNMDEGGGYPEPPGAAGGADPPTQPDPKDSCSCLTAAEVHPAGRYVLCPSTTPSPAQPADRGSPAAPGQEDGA
Outline: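 AXL enzyme (final 0.016 ng/uL) was preincubated with compound (8 concentrations from 1 μM, ½ log steps) for 15 min at room temperature, then reacted with TK Substrate 3-biotin (final 1) and ATP (final 15 μM) for 45 min at 25° C. Phosphorylation was read by HTRF (TK antibody-cryptate, streptavidin-XL665, 1 h); IC50 from variable-slope dose-response fit.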

IC50 [nM] | SMILES
2.35 | CP(C)(=O)c1ccccc1Nc1nc(Nc2ccc3c(c2)CC[C@@H](N2CCCC2)CC3)ncc1Cl [Example 10, (S)-(2-((5-chloro-2-((7-(pyrrolidin-1-yl)-6,7,8,9-tetrahydro-5H-benzo[7]annulen-2-yl)amino)pyrimidin-4-yl)amino)phenyl)dimethyl phosphine oxide]
0.11 | CNC(=O)c1cc(F)ccc1Nc1nc(Nc2ccc3c(c2)CC[C@@H](N2CCCC2)CC3)ncc1Cl [Example 19, (S)-2-((5-chloro-2-((7-(pyrrolidin-1-yl)-6,7,8,9-tetrahydro-5H-benzo[7]annulen-2-yl)amino)pyrimidin-4-yl)amino)-5-fluoro-N-methylhenzamide]
1.72 | CP(C)(=O)c1c(Nc2nc(Nc3ccc4c(c3)CC[C@@H](N3CCCC3)CC4)ncc2Cl)ccc2nccnc12 [Example 47, (S)-(6-((5-chloro-2-((7-(pyrrolidin-1-yl)-6,7,8,9-tetrahydro-5H-benzo[7]annulen-2-yl)amino)pyrimidin-4-yl)amino)quinoxalin-5-yl)dimethyl phosphine oxide]
1.86 | Cc1ccc(Nc2nc(Nc3ccc4c(c3)CC[C@@H](N3CCCC3)CC4)ncc2Cl)c(P(C)(C)=O)c1 [Example 53, (S)-(2-((5-chloro-2-((7-(pyrrolidin-1-yl)-6,7,8,9-tetrahydro-5H-benzo[7]annulen-2-yl)amino)pyrimidin-4-yl)amino)-5-methylphenyl) dimethyl phosphine oxide]

SMILES | IC50 [nM]
COCc1ccc(Nc2nc(Nc3ccc4c(c3)CC[C@@H](N3CCCC3)CC4)ncc2Cl)c(P(C)(C)=O)c1 [Example 115, (S)-(2-((5-chloro-2-((7-(pyrrolidin-1-yl)-6,7,8,9-tetrahydro-5H-benzo[7]annulen-2-yl)amino)pyrimidin-4-yl)amino)-5-(methoxymethyl)phenyl)dimethylphosphine oxide] | 4.89
